The nature of data set [1]: Solubility limit of drug in PBS. The settings on record: 25 °C, aqueous buffer. The text has this:
(§1) A significant parameter for the behavior of the disclosed drug delivery compositions is drug solubility in an aqueous environment and in hydrophobic environment, such as the soybean oil used in the examples described herein. Without wishing to be bound by a particular theory, it is possible that diffusion of the drug in the external medium (PBS) is a rate limiting step. Accordingly, solubility of the drug in this phase is crucial for modeling calculations of drug release. Solubility in the oil phase was estimated by preparing drug delivery compositions with different concentrations of drug, and observing the samples under a microscope.

Data set [2] is described as follows: Solubility limit of drug in oil phase of drug delivery composition (microscopy for visible drug particles).
From the text: as §1

Setting [3] is: apparent wt %, soybean oil phase, estimated from visible drug particles.

We go through four compounds from patent US11406594B2, “Oleogel compositions for retinal drug delivery” (University of Florida Research Foundation, Inc., priority 2017, dated 2022).

Structures can show the parent of a compound that is named as a salt. Where two headings read alike, the source gives them in different places.

Consider `C[C@@H]1C[C@H]2[C@@H]3CCC4=CC(=O)C=C[C@]4(C)[C@@]3(F)[C@@H](O)C[C@]2(C)[C@@]1(O)C(=O)COP(=O)(O)O` [Dexamethasone Phosphate], for which, in data set [1] (PBS), the solubility – broadly, how much of the substance goes into solution per volume – was over 89 µg/mL. For the same compound, in data set [2], the “Solubility Limit in Oil Phase of Drug Delivery Composition” value (“Solubility Limit in Oil Phase” below) is under 0.1%. As to `C[C@@H]1C[C@H]2[C@@H]3CCC4=CC(=O)C=C[C@]4(C)[C@@]3(F)[C@@H](O)C[C@]2(C)[C@@]1(O)C(=O)CO` [Dexamethasone], in data set [2] (setting [3]), the “Solubility Limit in Oil Phase” value is reported as 1%-3%.

In data set [1] (PBS), `CC(C)(C)NC[C@H](O)COc1nsnc1N1CCOCC1` [Timolol Maleate] yielded a solubility of over 89 µg/mL. Also, the “Solubility Limit in Oil Phase” value in data set [2] (setting [3]) is listed as 0.1%-1%.

For the compound `CN[C@H](CC(C)C)C(=O)N[C@H]1C(=O)N[C@@H](CC(N)=O)C(=O)N[C@H]2C(=O)N[C@H]3C(=O)N[C@H](C(=O)N[C@H](C(=O)O)c4cc(O)cc(O)c4-c4cc3ccc4O)[C@H](O)c3ccc(c(Cl)c3)Oc3cc2cc(c3O[C@@H]2O[C@H](CO)[C@@H](O)[C@H](O)[C@H]2O[C@H]2C[C@](C)(N)[C@H](O)[C@H](C)O2)Oc2ccc(cc2Cl)[C@H]1O` [Vancomycin Hydrochloride], the solubility in data set [1] is over 89 µg/mL.
